Measured values: ChEMBL document CHEMBL4304769, “Discovery of Potent and Orally Bioavailable Inverse Agonists of the Retinoic Acid Receptor-Related Orphan Receptor C2” (ACS Med Chem Lett, 2019)

Experiments:
physchem = settings: 1-octanol/PBS buffer, pH 7.4
in vivo [1] = settings: Wistar Han, rat, po, 2 mg/kg
in vivo [2] = settings: Wistar Han, rat, iv, 1 mg/kg
in vitro = settings: human, Caco-2

Row | logD (physchem) | further results | SMILES
1 | > 4 |  | CCS(=O)(=O)c1ccc(C(NC(=O)CC(C)C)C(=O)Nc2ccc(C(O)(C(F)(F)F)C(F)(F)F)cc2)cc1 (configuration not stated)
2 | > 4 |  | CCS(=O)(=O)c1ccc(CC(=O)Nc2ccc(-c3cccc(Cl)c3)cc2)cc1
3 | 2.5 |  | CCS(=O)(=O)c1ccc(CC(=O)Nc2ccc(C(C)(C)C#N)cc2)cc1
4 | 3.3 |  | CCS(=O)(=O)c1ccc(C(NC(=O)CC(C)(C)O)C(=O)Nc2ccc(C(O)(C(F)(F)F)C(F)(F)F)cc2)cc1 (configuration not stated)
5 | 3.2 |  | CCS(=O)(=O)c1ccc(C(NC(=O)NC)C(=O)Nc2ccc(C(O)(C(F)(F)F)C(F)(F)F)cc2)cc1 (configuration not stated)
6 | 2.8 |  | CCS(=O)(=O)c1ccc(C(NC(=O)Cc2ccncn2)C(=O)Nc2ccc(C(O)(C(F)(F)F)C(F)(F)F)cc2)cc1 (configuration not stated)
7 | 2.9 |  | CCS(=O)(=O)c1ccc(C(NC(=O)Cc2ccnnc2)C(=O)Nc2ccc(C(O)(C(F)(F)F)C(F)(F)F)cc2)cc1 (configuration not stated)
8 | 2.8 |  | CCS(=O)(=O)c1ccc(C(N)C(=O)Nc2ccc(C(O)(C(F)(F)F)C(F)(F)F)cc2)cc1 (configuration not stated)
9 | 3.3 |  | CCS(=O)(=O)c1ccc(C(NC(=O)Cc2ccccn2)C(=O)Nc2ccc(C(O)(C(F)(F)F)C(F)(F)F)cc2)cc1 (configuration not stated)
10 | 4 |  | CCS(=O)(=O)c1ccc(CC(=O)Nc2ccc(C(OC)(C(F)(F)F)C(F)(F)F)cc2)cc1
11 | 3.6 |  | CCS(=O)(=O)c1ccc(C(NC(=O)OC)C(=O)Nc2ccc(C(O)(C(F)(F)F)C(F)(F)F)cc2)cc1 (configuration not stated)
12 | > 4 |  | CCS(=O)(=O)c1ccc(C(NC(=O)c2ccccc2)C(=O)Nc2ccc(C(O)(C(F)(F)F)C(F)(F)F)cc2)cc1 (configuration not stated)
13 | 3.6 |  | CCS(=O)(=O)c1ccc(CC(=O)Nc2ccc(C(O)(C(F)(F)F)C(F)(F)F)cc2)cc1
14 | > 4 |  | CCS(=O)(=O)c1ccc(CC(=O)Nc2cccc(-c3cccc(Cl)c3)c2)cc1
15 | 2.7 |  | CCS(=O)(=O)c1ccc(C(NS(C)(=O)=O)C(=O)Nc2ccc(C(O)(C(F)(F)F)C(F)(F)F)cc2)cc1 (configuration not stated)
16 | 2.1 |  | CCS(=O)(=O)c1ccc(CC(=O)Nc2ccc([C@H](O)C(F)(F)F)cc2)cc1
17 | > 4.1 |  | CCS(=O)(=O)c1ccc(CC(=O)Nc2cc(-c3cccc(Cl)c3)cs2)cc1
18 | 4 | bioavailability at 24 h (in vivo [1]): 5%; Vd at 24 h (in vivo [2]): 10.2 L/kg | CCS(=O)(=O)c1ccc(C(NC(=O)Cc2ccccc2)C(=O)Nc2ccc(C(O)(C(F)(F)F)C(F)(F)F)cc2)cc1 (configuration not stated)
19 | 2.5 |  | CCS(=O)(=O)c1ccc(C(NC(=O)Cc2cccnn2)C(=O)Nc2ccc(C(O)(C(F)(F)F)C(F)(F)F)cc2)cc1 (configuration not stated)
20 | > 4 |  | CCS(=O)(=O)c1ccc(C(NC(=O)CCc2ccccc2)C(=O)Nc2ccc(C(O)(C(F)(F)F)C(F)(F)F)cc2)cc1 (configuration not stated)
21 | 3.9 |  | CCS(=O)(=O)c1ccc(CC(=O)Nc2ccc(C(C(F)(F)F)C(F)(F)F)cc2)cc1
22 |  | bioavailability at 24 h (in vivo [1]): 19%; Vd at 24 h (in vivo [2]): 0.34 L/kg; Papp (in vitro): 0.3 ×10⁻⁶ cm/s | CCS(=O)(=O)c1ccc(C(NC(C)=O)C(=O)Nc2cc(-c3cc(C#N)cc(F)c3OC)cs2)cc1 (racemic)
23 | 3.5 |  | CCS(=O)(=O)c1ccc(CC(=O)Nc2ccc(C(C)C)cc2)cc1
